We go through one compound from patent US20190262457A1, “NOVEL ALKYLATING AGENT” (CHIBA-PREFECTURE, priority 2016, published 2019).

Each structure is given as a SMILES string.

One assay concerns PD-L1 gene. Nature of the assay: Experiment to silence PD-L1 gene (RT-PCR / real-time PCR), CCC07-01. It is filed as cell-based, human. The note with it: RKO cells, 10 nM, 24 hours. The procedure:
(§1) RKO cells were cultured in a 6-well plate. On the next day, the cells were treated with 0, 1, 10, or 100 nM CCC07-01 for 24 hours. The cells were collected, and total RNA was extracted therefrom. The extraction employed RNeasy Plus Mini Kit (Qiagen N.V., CA). Next, cDNA was prepared by reverse transcription with the extracted RNA as a template according to Super Script VILO cDNA Synthesis kit (Invitrogen Corp., CA). RT-PCR was performed with the cDNA as a template under the following conditions: the conditions for PD-L1 involved denaturation at 95° C. and then 25 cycles each involving 95° C. for 30 seconds, 60° C. for 30 seconds, and 72° C. for 30 seconds, followed by elongation reaction at 72° C. for 5 minutes. For a control, RT-PCR of GAPDH was performed using the same cDNA as above. The conditions for GAPDH involved denaturation at 95° C. and then 22 cycles each involving 95° C. for 30 seconds, 55° C. for 30 seconds, and 72° C. for 30 seconds, followed by elongation reaction at 72° C. for 5 minutes.
Each RT-PCR product was electrophoresed on 2% agarose and then stained with ethidium bromide. qPCR was further performed. […] A relative expression level was quantified with GAPDH as a control.
Background: In qPCR the cycle at which signal appears reflects the starting amount.

The test system of assay [1] is cytotoxic T cells (CD8-positive cells) and regulatory T cells (Treg). The assay is described as follows: Ratio of cytotoxic T cells to Treg in the spleen of RKO-transplanted humanized NSG mice (flow cytometer). It counts as in vivo, mouse. The note with it: one week after administration. As for the experimental part:
1×10^7 cells of human PBMC (Precision Bioservices Inc.) were intravenously transplanted to each NSG mouse (NOD.Cg-Prkdc^scidI/2rg^tm1Wj1/SzJ; Charles River Laboratories Japan, Inc.) to prepare a humanized NSG mouse. One week after the PBMC transplantation, 1×10^7 RKO cells (ATCC) were subcutaneously transplanted to each humanized NSG mouse. After the transplantation, CCC07-01 was intravenously administered at 2.3 or 9.2 mg/kg to the mouse when tumorigenesis was able to be confirmed. The tumor size was measured over time, and the tumor volume (mm^3) was calculated according to the expression: Tumor volume=[…]. One week after the CCC07-01 administration, the spleen was harvested and homogenized in 2% FBS/PBS to prepare a cell suspension. The spleen cells were stained with a fluorescently labeled anti-human CD4 antibody, anti-human CD8 antibody and anti-human Foxp3 antibody and analyzed for the numbers of cytotoxic T cells (CD8-positive cells) and regulatory T cells (Treg: CD4-positive and Foxp3-positive cells) using a flow cytometer. Statistical processing was performed by the Mann-Whitney U test, and the significance level was set to P<0.05.
(Flow cytometry measures light scatter and fluorescence of single cells or particles in a stream.)

Another assay concerns CTLA-4 gene. Nature of the assay: Experiment to silence CTLA-4 gene (semi-quantitative RT-PCR), CCC07-01. It is filed as cell-based, human. The note with it: A2058 cells, 10 nM, 24 hours. The procedure: A2058 or MIA PaCa-2 cells were cultured in a 6-well plate. On the next day, the cells were treated with 0, 1, or 10 nM CCC07-01 for 24 hours. The cells were collected, and total RNA was extracted therefrom. The extraction employed RNeasy Plus Mini Kit (Qiagen N.V., CA). Next, cDNA was prepared by reverse transcription with the extracted RNA as a template according to Super Script VILO cDNA Synthesis kit (Invitrogen Corp., CA). RT-PCR was performed with the cDNA as a template under the following conditions: the conditions involved denaturation at 95° C. for 2 minutes and then 33 cycles each involving 95° C. for 30 seconds, 60° C. for 30 seconds, and 72° C. for 30 seconds, followed by elongation reaction at 72° C. for 5 minutes. For a control, RT-PCR of GAPDH was performed using the same cDNA as above. The conditions for GAPDH involved denaturation at 95° C. for 2 minutes and then 22 cycles each involving 95° C. for 30 seconds, 55° C. for 30 seconds, and 72° C. for 30 seconds, followed by elongation reaction at 72° C. for 5 minutes. Each PCR product was electrophoresed on 2% agarose and then stained with ethidium bromide. The concentration of the band of the PCR product of CTLA-4 was calculated with the GAPDH band as a control using Image J. The concentrations of the PCR products for each concentration of PIP were compared for quantification.

For another assay, the system named is PD-1 gene. The assay is described as follows: Experiment to silence PD-1 gene (RT-PCR / real-time PCR). The note with it: SW480 cells, 100 nM, 6 hours. It counts as cell-based, human. The procedure: as §1, with “SW480” for “RKO”, “6” for “24”, “PD-1” for “PD-L1”, “33” for “25”, “56°” for “60°”
Each RT-PCR product was electrophoresed on 2% agarose and stained with ethidium bromide. qPCR was further performed. […] A relative expression level was quantified with GAPDH as a control.

Take `CC(=O)Nc1cn(C)c(C(=O)Nc2cc(C(=O)Nc3cn(C)c(C(=O)Nc4cn(C)c(C(=O)NCCC(=O)Nc5cc(C(=O)Nc6cc(C(=O)NCCCC(=O)Nc7cc(C(=O)Nc8cn(C)c(C(=O)NCCC(=O)Nc9cc(C(=O)Nc%10cc(C(=O)Nc%11ccc%12[nH]c(C(=O)N%13CC(CCl)c%14c%13cc(O)c%13ccccc%14%13)cc%12c%11)n(C)c%10)n(C)c9)n8)n(C)c7)n(C)c6)n(C)c5)n4)n3)n(C)c2)n1` (centres unmarked) [CCC07-01]: the “expression of PD-L1” value in the assay with PD-L1 gene is reported as “markedly decreased”. The entries for the “CD8-positive cell/Treg ratio in the spleen” value in assay [1] (2.3 mg/kg intravenous) and in assay [1] (9.2 mg/kg intravenous) were 116.5 and 323.2, respectively. Besides, the “expression of CTLA-4” value in the assay on CTLA-4 gene is recorded as “markedly decreased”. Moreover, in the assay on PD-1 gene, the “expression of PD-1” value was “markedly decreased”.
